In PubChem BioAssay (NCI):
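Where inhibition never reached the appropriate level, the endpoint shown equals the highest concentration tested. Otherwise, values were interpolated linearly from a five-concentration, 48-hour dose response in 96-well plates. GI50 = concentration required for 50% inhibition of growth. TGI is the concentration that stops growth completely.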

How the values were obtained:
Experiment in all cases: NCI-60 cell line screen, 48 h
[1] = system: LOX IMVI melanoma
[2] = system: SNB-19 CNS
[3] = system: HCT-116 colon
[4] = system: CAKI-1 renal
[5] = system: SK-OV-3 ovarian
[6] = system: CCRF-CEM leukemia
[7] = system: MCF7 breast
[8] = system: K-562 leukemia
[9] = system: SK-MEL-5 melanoma
[10] = system: OVCAR-3 ovarian
[11] = system: SR leukemia
[12] = system: NCI-H23 lung
[13] = system: SF-268 CNS
[14] = system: COLO 205 colon
[15] = system: SW-620 colon
[16] = system: 786-0 renal
[17] = system: OVCAR-5 ovarian
[18] = system: A549 NSCLC
[19] = system: NCI-H226 lung
[20] = system: NCI-H522 lung
[21] = system: NCI/ADR-RES ovarian
[22] = system: KM12 colon
[23] = system: BT-549 breast
[24] = system: MDA-MB-435
[25] = system: A498 renal
[26] = system: UO-31 renal
[27] = system: OVCAR-8 ovarian
[28] = system: UACC-257 melanoma
[29] = system: ACHN renal
[30] = system: SF-295 CNS
[31] = system: U251 CNS
[32] = system: OVCAR-4 ovarian
[33] = system: IGROV1 ovarian
[34] = system: MDA-MB-231 breast
[35] = system: SK-MEL-28 melanoma
[36] = system: HOP-92 NSCLC
[37] = system: HOP-62 NSCLC
[38] = system: SF-539 CNS
[39] = system: SK-MEL-2 melanoma
[40] = system: RPMI-8226 leukemia
[41] = system: UACC-62 melanoma
[42] = system: EKVX NSCLC
[43] = system: MOLT-4 leukemia
[44] = system: PC-3 prostate
[45] = system: HL-60(TB) leukemia
[46] = system: NCI-H460 lung
[47] = system: TK-10 renal
[48] = system: DU-145 prostate
[49] = system: SN12C renal
[50] = system: M14 melanoma
[51] = system: RXF 393 renal
[52] = system: HCT-15 colon
[53] = system: HS 578T breast
[54] = system: HT29 colon
[55] = system: T-47D breast
[56] = system: MALME-3M melanoma
[57] = system: SNB-75 CNS
[58] = system: HCC-2998 colon

`COc1ccc(C2NC(=S)NC3=C2COc2ccc(F)cc23)cc1OC` (stereo not given) showed a GI50 [1] of 13.5 µM, a TGI [1] of 27.6 µM and a GI50 [2] of 46.7 µM. For the same compound, the TGI [2] was over 100 µM, the GI50 [3] was 16.6 µM and the TGI [3] was 57.1 µM. The GI50 [4] was 15.8 µM, the TGI [4] was 65 µM and the GI50 [5] was 71.2 µM. For the same compound, the TGI [5] was over 100 µM, the GI50 [6] was 93.5 µM and the TGI [6] was over 100 µM. For the same compound, the GI50 [7] was 31.2 µM, the TGI [7] was over 100 µM and the GI50 [8] was 15.9 µM. For the same compound, the TGI [8] was over 100 µM, the GI50 [9] was 13.5 µM and the TGI [9] was 30.7 µM. The GI50 [10] was 11 µM, the TGI [10] was 49.9 µM and the GI50 [11] was 50.8 µM. The TGI [11] was over 100 µM, the GI50 [12] was 14.1 µM and the TGI [12] was 34.2 µM. The GI50 [13] was 19 µM, the TGI [13] was over 100 µM and the GI50 [14] was 36.2 µM. The TGI [14] was over 100 µM, the GI50 [15] was 24.5 µM and the TGI [15] was over 100 µM. It also gave a GI50 [16] of 28.6 µM, a TGI [16] of over 100 µM and a GI50 [17] of 18.6 µM. The TGI [17] was 48.1 µM, the GI50 [18] was 10.9 µM and the TGI [18] was 36.7 µM. For the same compound, the GI50 [19] was 16.3 µM, the TGI [19] was 70.4 µM and the GI50 [20] was 49.2 µM. The TGI [20] was over 100 µM, the GI50 [21] was 18.9 µM and the TGI [21] was 44.4 µM. It also gave a GI50 [22] of 25.9 µM, a TGI [22] of over 100 µM and a GI50 [23] of 27.9 µM. For the same compound, the TGI [23] was 83.3 µM, the GI50 [24] was 12.3 µM and the TGI [24] was 38.5 µM. For the same compound, the GI50 [25] was 13.4 µM, the TGI [25] was 36.1 µM and the GI50 [26] was 39.2 µM. The TGI [26] was over 100 µM, the GI50 [27] was 19.4 µM and the TGI [27] was 60.9 µM. The GI50 [28] was 14.2 µM, the TGI [28] was 45.4 µM and the GI50 [29] was 13 µM. The TGI [29] was 39.2 µM, the GI50 [30] was 20.1 µM and the TGI [30] was 70.3 µM. The GI50 [31] was 12.7 µM, the TGI [31] was 29.5 µM and the GI50 [32] was 23 µM. The TGI [32] was over 100 µM, the GI50 [33] was 29.8 µM and the TGI [33] was over 100 µM. For the same compound, the GI50 [34] was 8.37 µM, the TGI [34] was 53.5 µM and the GI50 [35] was 41.2 µM. It also gave a TGI [35] of over 100 µM, a GI50 [36] of 41.7 µM and a TGI [36] of over 100 µM. The GI50 [37] was 26.8 µM, the TGI [37] was over 100 µM and the GI50 [38] was 28.3 µM. It also gave a TGI [38] of 67.4 µM, a GI50 [39] of 55.4 µM and a TGI [39] of over 100 µM. For the same compound, the GI50 [40] was 13.5 µM, the TGI [40] was over 100 µM and the GI50 [41] was 14.8 µM. The TGI [41] was 41.8 µM, the GI50 [42] was 29.8 µM and the TGI [42] was over 100 µM. The GI50 [43] was 54.6 µM, the TGI [43] was over 100 µM and the GI50 [44] was 14.2 µM. The TGI [44] was 87.9 µM, the GI50 [45] was 18.5 µM and the TGI [45] was 50.7 µM. It also gave a GI50 [46] of 24.1 µM, a TGI [46] of over 100 µM and a GI50 [47] of 31.2 µM. For the same compound, the TGI [47] was over 100 µM, the GI50 [48] was 33.2 µM and the TGI [48] was over 100 µM. For the same compound, the GI50 [49] was 15.1 µM, the TGI [49] was 50.1 µM and the GI50 [50] was 33.9 µM. The TGI [50] was over 100 µM, the GI50 [51] was 18.9 µM and the TGI [51] was 60.8 µM. For the same compound, the GI50 [52] was 18.6 µM, the TGI [52] was 87 µM and the GI50 [53] was 7.75 µM. The TGI [53] was 38.1 µM.
`N#CC1=C(N)NC(=S)C(C#N)C12Nc1ccccc1S2` (stereo not given) gave a GI50 [54] of 29.3 µM, a TGI [54] of 77.7 µM and a GI50 [1] of 13.5 µM. For the same compound, the TGI [1] was 32.6 µM, the GI50 [2] was 25.8 µM and the TGI [2] was over 100 µM. It also gave a GI50 [3] of 18.5 µM, a TGI [3] of 41.7 µM and a GI50 [4] of 11 µM. The TGI [4] was 35.1 µM, the GI50 [5] was 27.1 µM and the TGI [5] was 77.8 µM. For the same compound, the GI50 [7] was 8.14 µM, the TGI [7] was over 100 µM and the GI50 [8] was 48.2 µM. For the same compound, the TGI [8] was over 100 µM, the GI50 [9] was 12.8 µM and the TGI [9] was 26.7 µM. It also gave a GI50 [10] of 12.6 µM, a TGI [10] of 40.1 µM and a GI50 [11] of 78.9 µM. It also gave a TGI [11] of over 100 µM, a GI50 [12] of 13.4 µM and a TGI [12] of 33.2 µM. For the same compound, the GI50 [13] was 14.8 µM, the TGI [13] was 42.9 µM and the GI50 [14] was 25.5 µM. It also gave a TGI [14] of 60.6 µM, a GI50 [15] of 19.1 µM and a TGI [15] of 42.3 µM. The GI50 [16] was 25.4 µM, the TGI [16] was 68.9 µM and the GI50 [18] was 23.1 µM. The TGI [18] was 53.1 µM, the GI50 [20] was 16.2 µM and the TGI [20] was 35.6 µM. For the same compound, the GI50 [21] was 14.3 µM, the TGI [21] was 43.7 µM and the GI50 [22] was 24.8 µM. It also gave a TGI [22] of over 100 µM, a GI50 [23] of 21.7 µM and a TGI [23] of 49.1 µM. For the same compound, the GI50 [24] was 17.2 µM, the TGI [24] was 44.7 µM and the GI50 [26] was 17.6 µM. The TGI [26] was 38.5 µM, the GI50 [55] was 32.9 µM and the TGI [55] was 98.4 µM. It also gave a GI50 [27] of 27.2 µM, a TGI [27] of 65 µM and a GI50 [28] of 19.6 µM. The TGI [28] was 35.4 µM, the GI50 [29] was 9.82 µM and the TGI [29] was 29.4 µM. The GI50 [56] was 30.5 µM, the TGI [56] was 84 µM and the GI50 [30] was 19.5 µM. The TGI [30] was 47.8 µM, the GI50 [31] was 18.3 µM and the TGI [31] was 40.2 µM. For the same compound, the GI50 [57] was 28.1 µM, the TGI [57] was 73 µM and the GI50 [33] was 29.3 µM. The TGI [33] was 72.5 µM, the GI50 [34] was 11 µM and the TGI [34] was 32.9 µM. It also gave a GI50 [35] of 24.3 µM, a TGI [35] of 56.7 µM and a GI50 [36] of 60.8 µM. The TGI [36] was over 100 µM, the GI50 [37] was 17.6 µM and the TGI [37] was 72.4 µM. For the same compound, the GI50 [39] was 29.3 µM, the TGI [39] was 58.1 µM and the GI50 [40] was 61.6 µM. For the same compound, the TGI [40] was over 100 µM, the GI50 [41] was 18 µM and the TGI [41] was 33.4 µM. It also gave a GI50 [42] of 0.793 µM, a TGI [42] of 8.04 µM and a GI50 [43] of over 100 µM. For the same compound, the TGI [43] was over 100 µM, the GI50 [44] was 41 µM and the TGI [44] was over 100 µM. The GI50 [45] was 35.1 µM, the TGI [45] was over 100 µM and the GI50 [46] was 16.7 µM. The TGI [46] was over 100 µM, the GI50 [47] was 14.4 µM and the TGI [47] was 46.6 µM. The GI50 [49] was 14.4 µM, the TGI [49] was 33.2 µM and the GI50 [50] was 16.1 µM. For the same compound, the TGI [50] was 32 µM, the GI50 [51] was 27.7 µM and the TGI [51] was 57.5 µM. For the same compound, the GI50 [52] was 15 µM and the TGI [52] was 42.3 µM.
For `O=C(NCCCn1ccnc1[N+](=O)[O-])C(=O)NCCCn1ccnc1[N+](=O)[O-]`, the TGI [54] was over 100 µM, the TGI [3] was over 100 µM and the TGI [6] was over 100 µM. The TGI [7] was over 100 µM, the TGI [8] was over 100 µM and the TGI [10] was over 100 µM. It also gave a TGI [11] of over 100 µM, a TGI [12] of over 100 µM and a TGI [13] of over 100 µM. For the same compound, the TGI [58] was over 100 µM, the TGI [16] was over 100 µM and the TGI [17] was over 100 µM. For the same compound, the TGI [19] was over 100 µM, the TGI [20] was over 100 µM and the TGI [22] was over 100 µM. The TGI [27] was over 100 µM, the TGI [28] was over 100 µM and the TGI [29] was over 100 µM. For the same compound, the TGI [56] was over 100 µM, the TGI [30] was over 100 µM and the TGI [31] was over 100 µM. For the same compound, the TGI [57] was over 100 µM, the TGI [35] was over 100 µM and the TGI [37] was over 100 µM. The TGI [38] was over 100 µM, the TGI [39] was over 100 µM and the TGI [40] was over 100 µM. For the same compound, the TGI [42] was over 100 µM, the TGI [43] was over 100 µM and the TGI [44] was over 100 µM. It also gave a TGI [45] of over 100 µM, a TGI [46] of over 100 µM and a TGI [47] of over 100 µM. The TGI [49] was over 100 µM, the TGI [52] was over 100 µM and the TGI [53] was over 100 µM.
